Laboratory results as given in US20080102451A1, “Companion diagnostic assays for endothelin receptor antagonists” (Abbott Laboratories, priority 2006, published 2008).

Key:
[1] = system: Mouse MC3T3 pre-osteoblastic cells; experiment: Microarray analysis of gene expression in ET-treated mouse osteoblasts; type: cell-based; conditions: for # Genes Blocked by ABT-627 (of genes down-regulated by ET) / # Genes Blocked by ABT-627 (of genes induced by ET): drug added 1 hour prior to ET
Excerpt: (§1) Mouse MC3T3 pre-osteoblastic cells (subclone 4) were purchased from ATCC (Manassis, Va.) and propagated in αMEM media without ascorbic acid (Invitrogen, Carlsbad, Calif.) supplemented with 10% FBS (Invitrogen). Human Mesenchymal Stem Cells (MSCs) were purchased from Cambrex (Walkersville, Md.) and propagated according in MSCGM™ media (Cambrex). To initiate differentiation of the MSC into human osteoblasts, the growth media was replaced by osteogenic differentiation medium (OGM, Cambrex).
(§2) Mouse preosteoblastic MC3T3 cells as well as primary human osteoblasts were treated with ET, from Sigma (St. Louis, Mo.), for 2, 4, and 6 hours in the absence or presence of the ETa receptor antagonist ABT-627, from Abbott Laboratories (Abbott Park, Ill.). The drug was added 1 hour prior to the addition of ET.
(§3) Total RNA was extracted from the treated cell lines and purified on RNeasy columns (Qiagen, Valencia, Calif.). Labeled cRNA was prepared according to the microarray manufacturer Affymetrix's protocol and hybridized to either mouse 430A 2.0 or human U133A 2.0 arrays (Affymetrix, Santa Clara, Calif.). Gene expression fold changes for each treatment were calculated by combining three biological replicates for each treatment using the Rosetta Resolver's Affymetrix error model software and building a ratio from the resulting values. All genes regulated ≧1.5-fold with a p-value of ≦0.01 were retained for further analysis. Conventional two-dimensional clustering was then performed by using the agglomerative hierarchical clustering algorithm. The Euclidean distance was used as the similarity metric.

PAI-1 = experiment: ELISA for PAI-1 secreted by MC3T3 osteoblast cells; type: cell-based, mouse; conditions: MC3T3 cell line
Excerpt: as §1, §2
(§4) Mouse MC3T3 osteoblast cells were propagated as set out above, and at times indicated were harvested and spun at 250×g for 10 minutes at room temperature. The clarified supernatants were aliquoted and frozen until analyzed. 200 microliters of each sample was tested in quadruplicate by commercially available ELISA assay kits for PAI-1 (Molecular Innovations, Southfield, Mich.), OPG (Biomedica, San Diego, Calif.) and IL-6 (Ray Biotech, Norcross, Ga.). The ELISA tests were performed according to the manufacturer's instructions. […]

osteoblastic metastases = conditions: mice injected with ET-1-secreting breast cancer cell lines; Yin et al. 2003; cited from earlier work
OPG = experiment: ELISA for OPG secreted by MC3T3 osteoblast cells; type: cell-based, mouse; conditions: MC3T3 cell line
Excerpt: as §1, §2, §4

IL-6 = experiment: ELISA for IL-6 secreted by MC3T3 osteoblast cells; type: cell-based, mouse; conditions: MC3T3 cell line
Excerpt: as §1, §2, §4

[2] = system: metastatic hormone-refractory prostate cancer; conditions: patients with metastatic hormone-refractory prostate cancer; Nelson et al. 2003; cited from earlier work
[3] = system: primary human osteoblasts; experiment: Microarray analysis of gene expression in ET-treated primary human osteoblasts; type: cell-based; conditions: ET-1 treatment
Excerpt: as §1, §2
as §3, with “All genes regulated ≧1.5-fold with a p-value of ≦0.01 were retained for further analysis. Conventional two-dimensional clustering was then performed by using the agglomerative hierarchical clustering algorithm. The Euclidean distance was used as the similarity metric.” left out

[4] = endothelin in the presence of ABT-627
[5] = mouse osteoblasts, time point 4 hr
[6] = mouse osteoblasts, time point 6 hr

CCCCN(CCCC)C(=O)CN1C[C@H](c2ccc3c(c2)OCO3)[C@@H](C(=O)O)[C@@H]1c1ccc(OC)cc1 [ABT-627, (2R,3R,4S)-(+)-2-(4-Methoxyphenyl)-4-(1,3-benzodioxol-5-yl)-1-(N,N-di(n-butyl)aminocarbonylmethyl)-pyrrolidine-3-carboxylic acid]
Induction by ET-1 of osteoblastic maturation genes (OPG, COX-2, Dmp1, Tgfbi, CTGF, Klf10) ([1]; osteoblastic cells, pre-treatment with ABT-627): blocked | Induction by ET of apoptosis suppression genes (Nur77, Flt1, NFATc1) ([1]; osteoblastic cells, with ABT-627): the induction was blocked | Genes Blocked by ABT-627 as percent of genes induced by ET ([1]; time point 2 hr): (96%) | # Genes Blocked by ABT-627 (of genes down-regulated by ET) ([1]; time point 2 hr): 403 | # Genes Blocked by ABT-627 (of genes induced by ET) ([1]; time point 2 hr): 581 | Genes Blocked by ABT-627 as percent of genes induced by ET ([1]; time point 4 hr): (83%) | # Genes Blocked by ABT-627 (of genes down-regulated by ET) ([1]; time point 4 hr): 262 | # Genes Blocked by ABT-627 (of genes induced by ET) ([1]; time point 4 hr): 390 | Genes Blocked by ABT-627 as percent of genes induced by ET ([1]; time point 6 hr): (97%) | # Genes Blocked by ABT-627 (of genes down-regulated by ET) ([1]; time point 6 hr): 93 | # Genes Blocked by ABT-627 (of genes induced by ET) ([1]; time point 6 hr): 189 | Effect of pre-treatment on ET gene induction events ([1]; two-dimensional hierarchical clustering, all three timepoints): abrogated almost all of these gene induction events | Gene expression changes caused by the antagonist alone ([1]; without ET): very few gene expression changes | Endothelin-induced expression of PAI-1 (ELISA) (PAI-1; [4]): substantial suppression | Metastatic growth (osteoblastic metastases): suppressed the metastatic growth | Endothelin-induced expression of OPG (ELISA) (OPG; [4]): substantial suppression | Endothelin-induced expression of IL-6 (ELISA) (IL-6; [4]): substantial suppression | Time to disease progression [2]: extended time to disease progression

CC[C@H](C)[C@H](NC(=O)[C@H](CC(=O)O)NC(=O)[C@H](CC(C)C)NC(=O)[C@H](Cc1c[nH]cn1)NC(=O)[C@@H]1CSSC[C@H](N)C(=O)N[C@@H](CO)C(=O)N[C@H]2CSSC[C@H](NC(=O)[C@H](CCC(=O)O)NC(=O)[C@H](CCCCN)NC(=O)[C@H](CC(=O)O)NC(=O)[C@H](CCSC)NC(=O)[C@H](CC(C)C)NC(=O)[C@H](CO)NC(=O)[C@H](CO)NC2=O)C(=O)N[C@@H](C(C)C)C(=O)N[C@@H](Cc2ccc(O)cc2)C(=O)N[C@@H](Cc2ccccc2)C(=O)N1)C(=O)N[C@H](C(=O)N[C@@H](Cc1c[nH]c2ccccc12)C(=O)O)[C@@H](C)CC [ET]
Expression of genes coding for secreted proteins (PAI-1, uPA, TGFbeta2, IL-6, IL-8) ([1]; mouse osteoblasts, ET-1 treatment): strongly upregulated | # Genes Down-regulated by ET ([1]; mouse osteoblasts, time point 2 hr): 423 | # Genes Induced by ET ([1]; mouse osteoblasts, time point 2 hr, regulated >=1.5-fold, p<=0.01): 608 | # Genes Down-regulated by ET [1, 5]: 295 | # Genes Induced by ET [1, 5]: 472 | # Genes Down-regulated by ET [1, 6]: 95 | # Genes Induced by ET [1, 6]: 194 | Expression of apoptosis suppression genes (Nur77, Flt1, NFATc1) ([1]; osteoblastic cells, ET treatment): induced | Expression of PAI-1 (ELISA) (PAI-1; treatment with endothelin): strongly induced | Expression of OPG (ELISA) (OPG; treatment with endothelin): strongly induced | Expression of IL-6 (ELISA) (IL-6; treatment with endothelin): strongly induced | Expression of genes coding for secreted proteins (PAI-1, uPA, TGFbeta2, IL-6, IL-8) [3]: strongly upregulated
